Assay results from paper PMC8140105 (Scientific Reports, 2021).
Values joined by “and” are separate entries in the source; they are usually repeats but may differ in a detail not shown here. Equal entries are not always repeated.

Assays:
[1] = Ex vivo metabolization in serum, tissue and faeces homogenates; assay type: in vitro ADME, ICR-CD-1 mice; conditions: UPLC-UV/MS; for T1/2 / Metabolites: 37 °C; for T1/2: first order kinetics
Procedure: Peptide solution (0.1 mg/mL) was incubated with serum, brain, liver, kidney, colon or faeces homogenate at 37 °C. After 0, 5, 10, 30 and 60 min, aliquots were taken for UPLC-UV/MS analysis. Preparation of the tissue homogenates and UPLC-UV/MS parameters are given in supplementary information (Supplementary methods S3-S4). The half-live was calculated using the following equation:4 T1/2=-ln(2)/Slope where the slope is defined by linear regression assuming first order kinetics.
Supplementary method S3: Tissue homogenate preparation
Preparation of Krebs-Henseleit buffer (pH 7.4) (KH-buffer)
The powdered medium was dissolved in 900 mL water while stirring. To this solution, 0.3790 g CaCl2×2H2O and 2.098 g NaHCO3 was subsequently added while stirring. NaOH or HCl was used to adjust to pH 7.4. This solution was then further diluted to 1000 mL using ultrapure […]
Preparation of tissue homogenates
- The liver (n = 1), kidneys (n = 6), brains (n = 3), colons (n = 4) and faeces (0.196 g) of ICR-CD-1 mice were collected.
- After cleaning and rinsing the tissues using ice-cold KH buffer, the tissues were cut in little pieces and transferred into a 50 mL tube to which 36 mL ice-cold KH buffer was added.
- The tissues were then homogenized with at tissue homogenizer.
- After the larger particles were allowed to settle for about 30 minutes at 5°C, approximately 25 mL of the middle layer was transferred into a 50 mL Falcon tube using a plastic pipette.
- After shaking the homogenates, the homogenates were dispensed into 2 mL Eppendorf tubes, and stored at -35°C until use.
- The protein content of the homogenates were determined using the Pierce Modified Lowry […]
- Just before use, the homogenates were diluted to a protein concentration of 0.6 mg/mL (i.e.
300 µg / 500 µL) with KH buffer.
- Into a 1.5 ml Protein LoBind tube, 900 µl of serum/tissue extract (500 µl of homogenate/serum and 400 µl of KH buffer, pH 7.4) was transferred.
- After temperature-equilibration at 37°C for 15 min while shaking at 750 rpm, 100 µl of peptide solution (0.1 mg/mL) was added followed by continued incubation at 37°C (while shaking), with […] aliquots taken after 0, 5, 10, 30 and 60 minutes.
- The aliquots were immediately transferred into 500 µl Protein LoBind Eppendorf tubes containing 100 µl of 1% V/V trifluoroacetic acid solution in water, heated for 5 minutes at 95°C, and cooled for 30 minutes in an ice-bath.
- The samples were then centrifuged at 16,000 g for 5 minutes at 5°C.
- The supernatants was then analyzed by UPLC-UV/MS.
Supplementary method S4: UPLC-UV/MS parameters ex vivo metabolization
The analytical parameters of the UPLC-UV/MS method for the ex vivo metabolization are given […]
Table 3: Analytical parameters of UPLC method […]
Needle wash H2O/ACN/DMSO (45/45/10), post injection (6 s)
Seal wash Methanol/H2O (10/90)

BV-2 microglia cells = experiment: MTT viability of BV-2 microglia cells; assay type: cell-based, murine

SDLPFEH [PapRIV, heptapeptide (SDLPFEH) quorum sensing peptide originating from the Bacillus cereus group; synthetic, purchased from GL Biochem]
T1/2 ([1]; mouse brain homogenate 0.6 mg/mL protein in KH buffer pH 7.4, peptide solution 0.1 mg/mL added, 0–60 min): 522.9 min | Metabolites ([1]; mouse brain homogenate, 0–60 min): DLPFEH, LPFEH | metabolization in colon tissue ([1]; mouse colon homogenate 0.6 mg/mL protein in KH buffer pH 7.4, 37 °C, 0–60 min): no metabolization was observed | T1/2 ([1]; mouse faeces homogenate 0.6 mg/mL protein in KH buffer pH 7.4, peptide solution 0.1 mg/mL added, 0–60 min): 89.7 min | Metabolites ([1]; mouse faeces homogenate, 0–60 min): DLPFEH | T1/2 ([1]; mouse kidney homogenate 0.6 mg/mL protein in KH buffer pH 7.4, peptide solution 0.1 mg/mL added, 0–60 min): 20 min and 19.8 min | Metabolites ([1]; mouse kidney homogenate, 0–60 min): DLPFEH, LPFEH | T1/2 ([1]; mouse liver homogenate 0.6 mg/mL protein in KH buffer pH 7.4, peptide solution 0.1 mg/mL added, 0–60 min): 285.7 min | Metabolites ([1]; mouse liver homogenate, 0–60 min): DLPFEH, LPFEH | T1/2 ([1]; serum (500 µl + 400 µl KH buffer pH 7.4 + 100 µl peptide solution 0.1 mg/mL), shaking 750 rpm, aliquots 0, 5, 10, 30, 60 min): 25 min and 24.8 min | Metabolites ([1]; serum, 0–60 min): DLPFEH, LPFEH, LPFE, LPF, SDLPF, DLPF | viability of BV-2 microglia cells (BV-2 microglia cells; 25 µM treatment, non-significant decrease): 94.8% | toxic effects towards BV-2 microglia cells (BV-2 microglia cells; MTT, up to 25 µM): no significant toxic effects
